Assays:
Type in all cases: in vivo
Viola = assay: Post-emergence greenhouse test, % damage; details: Table A-6, after about 3 weeks
Excerpt: (§1) The expected activity for a given combination of two herbicides can be calculated as follows (cf. COLBY, S. R.: “Calculating synergistic and antagonistic responses of herbicide combinations”, Weeds 15, pages 20-22, 1967): • If X=% damage by herbicide A (active compound of the formula (I) at an application rate of p kg/ha • and Y=% damage by herbicide B (active compound of the formula II) at an application rate of q kg/ha • and E=the expected damage of the herbicides A and B at application rates of p and q kg/ha, • then E=X+Y−(X*Y/100).
(§2) Customary formulations of the active compounds in question were used. Propoxycarbazone-sodium was used as 70 WG, flufenacet as 60 WG and picolinafen as 75 WG formulation. From the active compounds, an aqueous spray liquor containing 0.1% of the additive Renex-36 was prepared.
(§3) Test plants are grown in a greenhouse under controlled conditions (temperature and light conditions). When the plants have reached a height of 5 to 15 cm, they are sprayed with the test solution. The concentration of the spray liquor is chosen such that the particular amounts of active compound desired are applied in 500 l of water/ha.
(§4) After the spray treatment, the plant containers are stored in a greenhouse at constant light and temperature conditions.
(§5) After about 3 weeks, the degree of damage to the crop plants is rated in % damage in comparison to the development of the untreated control.
(§6) The figures denote: • 0%=no damage (like untreated control) • 100%=total destruction/damage

Digitaria = assay: Post-emergence greenhouse test, % damage; details: Table A-2, after about 3 weeks
Excerpt: as §1, §2, §3, §4, §5, §6

Cassia = assay: Post-emergence greenhouse test, % damage; details: Table A-4, after about 3 weeks
Excerpt: as §1, §2, §3, §4, §5, §6

Echinochloa = assay: Post-emergence greenhouse test, % damage; details: Table A-3, after about 3 weeks
Excerpt: as §1, §2, §3, §4, §5, §6

Ipomoea = assay: Post-emergence greenhouse test, % damage; details: Table A-5, after about 3 weeks
Excerpt: as §1, §2, §3, §4, §5, §6

Avenua = assay: Post-emergence greenhouse test, % damage; details: after about 3 weeks
Excerpt: as §1, §2, §3, §4, §5, §6

Stellaria = assay: Outdoor trials in cereal, post-emergence spring, herbicidal activity; details: about 8-10 weeks after application
Excerpt: as §1
(§7) To examine a possible synergism, the compounds picolinafen and propoxycarbazone-sodium were tested under outdoor conditions in cereal against economically important weed grasses. The small-plot experiments were conducted on areas used for agricultural cultivation.
(§8) The active compounds were applied in spring by the post-emergence method and over the entire area, using spray application with a medium droplet size. To prepare an advantageous preparation of active compound, the active compounds were formulated as 70 WG (70% w/w water-dispersible powder) or 75 WG (75% w/w water-dispersible powder) and suspended in water. The spray liquor was then applied in a water application rate customarily used in practice.
(§9) About 8-10 weeks after the application of the spray liquor, the herbicidal activity was scored visually. The figures denote: • 0%=no herbicidal effect, • 100%=total destruction of the crop or the weeds.

Matricaria in. = assay: as above; details: about 8-10 weeks after application
Excerpt: as §1, §7, §8, §9

Galium = assay: as above; details: about 8-10 weeks after application
Excerpt: as §1, §7, §8, §9

Legousia = assay: as above; details: about 8-10 weeks after application
Excerpt: as §1, §7, §8, §9

Lactuca = assay: as above; details: about 8-10 weeks after application
Excerpt: as §1, §7, §8, §9

Matricaria ch. = assay: as above; details: about 8-10 weeks after application
Excerpt: as §1, §7, §8, §9

SMILES: CC(C)N(C(=O)COc1nnc(C(F)(F)F)s1)c1ccc(F)cc1 [flufenacet, N-isopropyl-N-(4-fluorophenyl)-(5-trifluoromethyl-1,3,4-thiadiazol-2-yl-oxy)-acetamide]
- Viola observed (Viola; 60 g of ai/ha): 0%
- Digitaria observed (Digitaria; 60 g of ai/ha): 0%
- Digitaria observed (Digitaria; 125 g of ai/ha): 10%
- Cassia observed (Cassia; 125 g of ai/ha): 0%
- Echinochloa observed (Echinochloa; 60 g of ai/ha): 60%
- Ipomoea observed (Ipomoea; 60 g of ai/ha): 30%
- Ipomoea observed (Ipomoea; 125 g of ai/ha): 30%
- Avenua observed (Avenua; 30 g of ai/ha, Table A-1): 10%
- Avenua observed (Avenua; 60 g of ai/ha, Table A-1): 10%

SMILES: O=C(Nc1ccc(F)cc1)c1cccc(Oc2cccc(C(F)(F)F)c2)n1 [picolinafen, N-(4-fluorophenyl)-6-[3-(trifluoromethyl)phenoxy]-2-pyridinecarboxamide]
- Viola observed (Viola; 8 g of ai/ha): 90%
- Digitaria observed (Digitaria; 30 g of ai/ha): 50%
- Cassia observed (Cassia; 30 g of ai/ha): 40%
- Echinochloa observed (Echinochloa; 8 g of ai/ha): 10%
- Ipomoea observed (Ipomoea; 8 g of ai/ha): 70%
- Ipomoea observed (Ipomoea; 15 g of ai/ha): 70%
- Ipomoea observed (Ipomoea; 30 g of ai/ha): 70%
- Avenua observed (Avenua; 8 g of ai/ha, Table A-1): 0%
- Avenua observed (Avenua; 15 g of ai/ha, Table A-7): 10%
- Avenua observed (Avenua; 15 g of ai/ha, Table A-8): 0%
- Avenua observed (Avenua; 15 g of ai/ha, Table A-9): 70%
- Avenua observed (Avenua; 30 g of ai/ha, Table A-1): 20%
- Avenua observed (Avenua; 30 g of ai/ha, Table A-7): 20%
- Avenua observed (Avenua; 30 g of ai/ha, Table A-8): 20%
- Avenua observed (Avenua; 30 g of ai/ha, Table A-9): 70%
- Stellaria observed (Stellaria; 75 g of ai/ha): 20%
- Matricaria in. observed (Matricaria in.; 75 g of ai/ha): 45%
- Galium observed (Galium; 75 g of ai/ha): 30%
- Legousia observed (Legousia; 75 g of ai/ha): 0%
- Lactuca observed (Lactuca; 75 g of ai/ha): 0%
- Matricaria ch. observed 1st location (Matricaria ch.; 75 g of ai/ha): 0%
- Matricaria ch. observed 2nd location (Matricaria ch.; 75 g of ai/ha): 0%

SMILES: CCCOc1nn(C(=O)NS(=O)(=O)c2ccccc2C(=O)OC)c(=O)n1C.[Na] [propoxycarbazone-sodium, methyl 2-[[[(4,5-dihydro-4-methyl-5-oxo-3-propoxy-1H-1,2,4-triazol-1-yl)carbonyl]-amino]-sulphonyl]-benzoate sodium salt]
- Avenua observed (Avenua; 15 g of ai/ha, Table A-7): 50%
- Avenua observed (Avenua; 15 g of ai/ha, Table A-8): 0%
- Avenua observed (Avenua; 15 g of ai/ha, Table A-9): 0%
- Avenua observed (Avenua; 30 g of ai/ha, Table A-7): 50%
- Avenua observed (Avenua; 30 g of ai/ha, Table A-8): 20%
- Avenua observed (Avenua; 30 g of ai/ha, Table A-9): 0%
- Avenua observed (Avenua; 60 g of ai/ha, Table A-7): 60%
- Avenua observed (Avenua; 60 g of ai/ha, Table A-9): 0%
- Stellaria observed (Stellaria; 42 g of ai/ha): 30%
- Matricaria in. observed (Matricaria in.; 42 g of ai/ha): 75%
- Galium observed (Galium; 42 g of ai/ha): 0%
- Legousia observed (Legousia; 42 g of ai/ha): 0%
- Lactuca observed (Lactuca; 42 g of ai/ha): 10%
- Matricaria ch. observed 1st location (Matricaria ch.; 42 g of ai/ha): 60%
- Matricaria ch. observed 2nd location (Matricaria ch.; 42 g of ai/ha): 10%
